This note sets out measurements from ChEMBL document CHEMBL1133615 (J Med Chem, 2000).

In one assay the target is T1, Endothelin-1 receptor (Homo sapiens, UniProt P25101).
T1 sequence (P25101 whole entry): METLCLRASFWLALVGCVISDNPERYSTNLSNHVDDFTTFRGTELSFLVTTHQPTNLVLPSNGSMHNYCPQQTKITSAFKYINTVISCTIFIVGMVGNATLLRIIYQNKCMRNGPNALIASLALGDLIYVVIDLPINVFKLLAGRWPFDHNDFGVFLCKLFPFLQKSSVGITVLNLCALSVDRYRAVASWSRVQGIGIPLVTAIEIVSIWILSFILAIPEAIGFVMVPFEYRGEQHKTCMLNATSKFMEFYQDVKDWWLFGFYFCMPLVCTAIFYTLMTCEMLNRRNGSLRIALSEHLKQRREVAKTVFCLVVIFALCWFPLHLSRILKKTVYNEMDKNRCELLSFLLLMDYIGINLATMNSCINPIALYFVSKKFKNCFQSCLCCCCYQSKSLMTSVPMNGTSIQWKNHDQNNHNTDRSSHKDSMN

Assay [1] has as its target T2, Endothelin receptor type B (Homo sapiens, UniProt P24530).
T2 sequence (P24530 whole entry): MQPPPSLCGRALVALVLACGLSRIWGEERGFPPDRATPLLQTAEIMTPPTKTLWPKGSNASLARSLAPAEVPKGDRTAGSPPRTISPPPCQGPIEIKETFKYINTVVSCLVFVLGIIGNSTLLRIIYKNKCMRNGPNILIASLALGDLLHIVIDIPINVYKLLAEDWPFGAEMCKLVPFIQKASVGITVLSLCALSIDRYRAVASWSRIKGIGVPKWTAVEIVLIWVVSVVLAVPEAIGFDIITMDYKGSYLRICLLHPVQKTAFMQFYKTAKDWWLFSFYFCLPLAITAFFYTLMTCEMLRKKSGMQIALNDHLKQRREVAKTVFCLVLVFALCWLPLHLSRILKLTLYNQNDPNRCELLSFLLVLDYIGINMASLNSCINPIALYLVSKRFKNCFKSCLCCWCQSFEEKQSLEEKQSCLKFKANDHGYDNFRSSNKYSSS
Put plainly: Inhibition of Human Endothelin B receptor expressed in CHO Cells.

The species named for a further assay is Oryctolagus cuniculus. Put plainly: Inhibition of Endothelin-1 induced contractions in rabbit carotid artery rings. In kind it is functional.

Description for Endothelin-1 receptor: Inhibition of Human Endothelin A receptor expressed in CHO Cells.

One may read the Ki as a dissociation constant, usually derived from enzyme kinetics or from competition with a known ligand. A low value points to a stronger hold on the target. With `Cc1nc(-c2ccc(-c3ccccc3S(=O)(=O)Nc3onc(C)c3C)cc2)oc1C`, the Ki at Endothelin-1 receptor worked out at 16 nM; in assay [1] it was 12000 nM. In addition, the Kb in the assay listed under Oryctolagus cuniculus was determined as 230 nM.

On to `Cc1noc(NS(=O)(=O)c2ccccc2-c2ccc(-c3cnco3)cc2)c1C`, for which the Ki on Endothelin-1 receptor was found to be 3.7 nM; in assay [1], 78000 nM. For the same compound, the Kb in the assay filed under Oryctolagus cuniculus is 58 nM.

As to `Cc1noc(NS(=O)(=O)c2ccccc2-c2ccc(Cc3ncco3)cc2)c1C`, the inhibition constant Ki on Endothelin-1 receptor worked out at 19 nM; in assay [1], 34000 nM. This compound also registered a Kb in the assay filed under Oryctolagus cuniculus of 320 nM.

Take `Cc1noc(NS(=O)(=O)c2ccccc2-c2ccc(-c3cocn3)cc2)c1C`: the Ki at Endothelin-1 receptor stood at 0.5 nM; in assay [1], 20000 nM. This compound also had a Kb in the assay listed under Oryctolagus cuniculus of 20 nM.

As to `Cc1nc(-c2ccc(-c3ccccc3S(=O)(=O)Nc3onc(C)c3C)cc2)co1`, the Ki at Endothelin-1 receptor worked out at 70 nM; in assay [1] it was 110000 nM. The Kb in the assay listed under Oryctolagus cuniculus came to 2500 nM.

Take `Cc1cnc(-c2ccc(-c3ccccc3S(=O)(=O)Nc3onc(C)c3C)cc2)o1`: the figures for the Ki (at Endothelin-1 receptor; in assay [1]) were 11 nM and 12000 nM, respectively. The same compound came in with a Kb in the assay filed under Oryctolagus cuniculus of 140 nM.

For the compound `Cc1coc(-c2ccc(-c3ccccc3S(=O)(=O)Nc3onc(C)c3C)cc2)n1`, the Ki at Endothelin-1 receptor came to 2 nM; in assay [1], 100000 nM. In the assay listed under Oryctolagus cuniculus, this compound showed a Kb of 18 nM.

The compound `Cc1noc(NS(=O)(=O)c2ccccc2-c2ccc(CC(C)C)cc2N)c1C` gave a Ki at Endothelin-1 receptor of 4.7 nM.

As for `Cc1noc(NS(=O)(=O)c2ccccc2-c2ccc(CC(C)C)cc2)c1C`, the Ki on Endothelin-1 receptor came out at 18 nM; in assay [1] it was 1700 nM. The compound further returned a Kb in the assay listed under Oryctolagus cuniculus of 210 nM.

For the compound `Cc1noc(NS(=O)(=O)c2ccccc2-c2ccc(-c3ncoc3C)cc2)c1C`, the results for the Ki (on Endothelin-1 receptor; in assay [1]) were 4.7 nM and 94000 nM, respectively. Besides, the Kb in the assay listed under Oryctolagus cuniculus is 47 nM.

With `Cc1noc(NS(=O)(=O)c2ccccc2-c2ccc(-c3nc4ccccc4o3)cc2)c1C`, the Ki was 2000 nM on Endothelin-1 receptor and 94000 nM in assay [1].
